Reference: patent US9976141B2, “Compositions and methods for inhibiting gene expression of Hif2alpha” (Arrowhead Madison Inc., priority 2015, dated 2018)
Strand notation (5' to 3'): a small letter for the sugar, then the base; units joined by * are phosphorothioate-linked, units joined directly phosphodiester-linked; [ ] holds rarer units or linkages, { } end groups; capitals alone tell only the bases. d = 2'-deoxy (DNA); m = 2'-O-methyl; f = 2'-fluoro

System: human EPAS1 (Hif2α) cDNA in psiCHECK2 (Renilla luciferase/EPAS1 fusion mRNA) in Hep3B cells
Assay: Efficacy screen of Hif2α RNAi triggers in vitro, dual-luciferase reporter assay (1 nM and 0.1 nM)
Assay type: cell-based
Settings: Hep3B cells co-transfected with EPAS1-psiCHECK2, Renilla luciferase normalized to firefly luciferase
Outline: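 Hep3B cells (10,000/well) co-transfected with chemically modified siRNA triggers at 1 nM and 0.1 nM plus 25 ng EPAS1-psiCHECK2 plasmid via LipoFectamine 2000. Knockdown measured as Renilla luciferase from the EPAS1 fusion mRNA, normalized to constitutive firefly luciferase by dual-luciferase assay.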

Row | Substance | Relative Rluc-Hif2α (0.1 nM RNAi trigger) | Relative Rluc-Hif2α (1 nM RNAi trigger)
1 | 2365 (sense fCmUfGmAfUmGfGmCfAmCfGmUfUmGfUmGfGmGfAdT; antisense dTfCmCfCmAfCmAfAmCfGmUfGmCfCmAfUmCfAmGdT*dT; siRNA) [compound 2365] | 1.132 ± 0.107 | 1.259 ± 0.247
2 | 2366 (sense fGmGfCmAfCmGfUmUfGmUfGmGfGmGfUmCfGmGfAdT; antisense dTfCmCfGmAfCmCfCmCfAmCfAmAfCmGfUmGfCmCdT*dT; siRNA) [compound 2366] | 0.879 ± 0.223 | 0.695 ± 0.115
3 | 2367 (sense fGmCfAmCfGmUfUmGfUmGfGmGfGmUfCmGfGmGfAdT; antisense dTfCmCfCmGfAmCfCmCfCmAfCmAfAmCfGmUfGmCdT*dT; siRNA) [compound 2367] | 0.665 ± 0.064 | 0.376 ± 0.039
4 | 2368 (sense fCmAfCmGfUmUfGmUfGmGfGmGfUmCfGmGfGmGfAdT; antisense dTfCmCfCmCfGmAfCmCfCmCfAmCfAmAfCmGfUmGdT*dT; siRNA) [compound 2368] | 1.036 ± 0.063 | 1.140 ± 0.221
5 | 2369 (sense fGmCfGmGfGmGfAmAfGmUfGmCfUmCfUmAfAmCfAdT; antisense dTfGmUfUmAfGmAfGmCfAmCfUmUfCmCfCmCfGmCdT*dT; siRNA) [compound 2369] | 0.464 ± 0.032 | 0.338 ± 0.055
6 | 2370 (sense fCmGfGmGfGmAfAmGfUmGfCmUfCmUfAmAfCmUfAdT; antisense dTfAmGfUmUfAmGfAmGfCmAfCmUfUmCfCmCfCmGdT*dT; siRNA) [compound 2370] | 0.498 ± 0.128 | 0.294 ± 0.026
7 | 2371 (sense fUmUfAmAfGmGfUmUfUmUfGmUfUmGfCmUfAmGfAdT; antisense dTfCmUfAmGfCmAfAmCfAmAfAmAfCmCfUmUfAmAdT*dT; siRNA) [compound 2371] | 0.193 ± 0.030 | 0.166 ± 0.037
8 | 2372 (sense fGmUfUmGfCmUfAmGfCmCfCmUfUmCfAmAfGmUfAdT; antisense dTfAmCfUmUfGmAfAmGfGmGfCmUfAmGfCmAfAmCdT*dT; siRNA) [compound 2372] | 0.831 ± 0.103 | 0.514 ± 0.044
9 | 2373 (sense fGmAfGmCfUmAfUmGfUmGfAmCfUmCfGmGfAmUfAdT; antisense dTfAmUfCmCfGmAfGmUfCmAfCmAfUmAfGmCfUmCdT*dT; siRNA) [compound 2373] | 0.369 ± 0.082 | 0.162 ± 0.032
10 | 2374 (sense fGmCfUmAfUmGfUmGfAmCfUmCfGmGfAmUfGmGfAdT; antisense dTfCmCfAmUfCmCfGmAfGmUfCmAfCmAfUmAfGmCdT*dT; siRNA) [compound 2374] | 0.355 ± 0.020 | 0.192 ± 0.014
11 | 2375 (sense fCmGfGmAfUmGfGmUfCmUfUmUfCmAfCmAfCmGfAdT; antisense dTfCmGfUmGfUmGfAmAfAmGfAmCfCmAfUmCfCmGdT*dT; siRNA) [compound 2375] | 0.481 ± 0.062 | 0.305 ± 0.040
12 | 2376 (sense fGmAfUmGfGmUfCmUfUmUfCmAfCmAfCmGfGmCfAdT; antisense dTfGmCfCmGfUmGfUmGfAmAfAmGfAmCfCmAfUmCdT*dT; siRNA) [compound 2376] | 0.546 ± 0.115 | 0.228 ± 0.029
13 | 2377 (sense fUmGfGmUfCmUfUmUfCmAfCmAfCmGfGmCfAmCfAdT; antisense dTfGmUfGmCfCmGfUmGfUmGfAmAfAmGfAmCfCmAdT*dT; siRNA) [compound 2377] | 0.900 ± 0.189 | 0.958 ± 0.189
14 | 2378 (sense fAmAfCmUfAmCfCmAfUmGfAmGfAmUfGmGfUmUfAdT; antisense dTfAmAfCmCfAmUfCmUfCmAfUmGfGmUfAmGfUmUdT*dT; siRNA) [compound 2378] | 0.994 ± 0.246 | 0.734 ± 0.170
15 | 2379 (sense fUmAfCmCfAmUfGmAfGmAfUmGfGmUfUmUfAmGfAdT; antisense dTfCmUfAmAfAmCfCmAfUmCfUmCfAmUfGmGfUmAdT*dT; siRNA) [compound 2379] | 0.858 ± 0.098 | 0.939 ± 0.204
16 | 2380 (sense fCmCfAmAfGmCfUmCfAmCfGmAfCmCfUmUfGmGfAdT; antisense dTfCmCfAmAfGmGfUmCfGmUfGmAfGmCfUmUfGmGdT*dT; siRNA) [compound 2380] | 1.128 ± 0.285 | 1.722 ± 0.101
17 | 2381 (sense fAmCfGmAfCmCfUmUfGmGfAmGfCmCfCmCfGmUfAdT; antisense dTfAmCfGmGfGmGfCmUfCmCfAmAfGmGfUmCfGmUdT*dT; siRNA) [compound 2381] | 0.756 ± 0.109 | 1.063 ± 0.191
18 | 2382 (sense fGmGfGmUfAmAfGmAfGmGfGmAfCmGfAmCfAmCfAdT; antisense dTfGmUfGmUfCmGfUmCfCmCfUmCfUmUfAmCfCmCdT*dT; siRNA) [compound 2382] | 1.070 ± 0.064 | 1.151 ± 0.365

Row | Substance | Relative Rluc-Hif2α (0.1 nM RNAi trigger) | Relative Rluc-Hif2α (1 nM RNAi trigger)
19 | 2383 (sense fGmGfUmAfAmGfAmGfGmGfAmCfGmAfCmAfCmCfAdT; antisense dTfGmGfUmGfUmCfGmUfCmCfCmUfCmUfUmAfCmCdT*dT; siRNA) [compound 2383] | 0.833 ± 0.082 | 1.060 ± 0.292
20 | 2384 (sense fGmUfAmAfGmAfGmGfGmAfCmGfAmCfAmCfCmUfAdT; antisense dTfAmGfGmUfGmUfCmGfUmCfCmCfUmCfUmUfAmCdT*dT; siRNA) [compound 2384] | 0.533 ± 0.067 | 0.439 ± 0.101
21 | 2385 (sense fUmGfGmUfUmUfUmUfCmAfAmUfAmCfCmAfAmUfAdT; antisense dTfAmUfUmGfGmUfAmUfUmGfAmAfAmAfAmCfCmAdT*dT; siRNA) [compound 2385] | 0.701 ± 0.178 | 0.515 ± 0.089
22 | 2386 (sense fUmUfCmAfAmUfAmCfCmAfAmUfUmAfCmAfUmGfAdT; antisense dTfCmAfUmGfUmAfAmUfUmGfGmUfAmUfUmGfAmAdT*dT; siRNA) [compound 2386] | 0.603 ± 0.032 | 0.274 ± 0.087
23 | 2387 (sense fAmUfAmCfCmAfAmUfUmAfCmAfUmGfGmAfAmCfAdT; antisense dTfGmUfUmCfCmAfUmGfUmAfAmUfUmGfGmUfAmUdT*dT; siRNA) [compound 2387] | 0.436 ± 0.028 | 0.201 ± 0.063
24 | 2388 (sense fCmCfAmAfCmUfAmUfUmUfAmGfUmAfAmGfCmCfAdT; antisense dTfGmGfCmUfUmAfCmUfAmAfAmUfAmGfUmUfGmGdT*dT; siRNA) [compound 2388] | 0.901 ± 0.318 | 0.436 ± 0.021
25 | 2389 (sense fAmAfCmUfAmUfUmUfAmGfUmAfAmGfCmCfCmGfAdT; antisense dTfCmGfGmGfCmUfUmAfCmUfAmAfAmUfAmGfUmUdT*dT; siRNA) [compound 2389] | 1.085 ± 0.307 | 0.820 ± 0.184
26 | 2390 (sense fAmCfUmAfUmUfUmAfGmUfAmAfGmCfCmCfGmGfAdT; antisense dTfCmCfGmGfGmCfUmUfAmCfUmAfAmAfUmAfGmUdT*dT; siRNA) [compound 2390] | 0.772 ± 0.175 | 0.568 ± 0.108
27 | 2391 (sense fAmGfAmAfAmUfUmCfCmUfUmAfGmUfCmAfUmGfAdT; antisense dTfCmAfUmGfAmCfUmAfAmGfGmAfAmUfUmUfCmUdT*dT; siRNA) [compound 2391] | 0.273 ± 0.006 | 0.129 ± 0.015
28 | 2392 (sense fCmAfUmUfAmAfGmGfGmCfAmUfUmUfUmAfCmCfAdT; antisense dTfGmGfUmAfAmAfAmUfGmCfCmCfUmUfAmAfUmGdT*dT; siRNA) [compound 2392] | 0.636 ± 0.039 | 0.283 ± 0.052
29 | 2393 (sense fUmAfAmGfGmGfCmAfUmUfUmUfAmCfCmCfUmUfAdT; antisense dTfAmAfGmGfGmUfAmAfAmAfUmGfCmCfCmUfUmAdT*dT; siRNA) [compound 2393] | 0.862 ± 0.388 | 1.049 ± 0.089
30 | 2394 (sense fAmGfCmUfUmCfAmUfAmUfUmAfAmCfCmCfUmAfAdT; antisense dTfUmAfGmGfGmUfUmAfAmUfAmUfGmAfAmGfCmUdT*dT; siRNA) [compound 2394] | 0.533 ± 0.076 | 0.254 ± 0.026
31 | 2395 (sense fUmAfUmUfAmAfCmCfCmUfAmCfCmUfGmUfCmAfAdT; antisense dTfUmGfAmCfAmGfGmUfAmGfGmGfUmUfAmAfUmAdT*dT; siRNA) [compound 2395] | 0.494 ± 0.104 | 0.218 ± 0.029
32 | 2396 (sense fUmUfAmAfCmCfCmUfAmCfCmUfGmUfCmAfAmCfAdT; antisense dTfGmUfUmGfAmCfAmGfGmUfAmGfGmGfUmUfAmAdT*dT; siRNA) [compound 2396] | 1.321 ± 0.070 | 0.939 ± 0.299
33 | 2397 (sense fAmCfCmCfUmAfCmCfUmGfUmCfAmAfCmGfUmAfAdT; antisense dTfUmAfCmGfUmUfGmAfCmAfGmGfUmAfGmGfGmUdT*dT; siRNA) [compound 2397] | 0.254 ± 0.048 | 0.119 ± 0.024
34 | 2398 (sense fCmCfCmUfAmCfCmUfGmUfCmAfAmCfGmUfAmAfAdT; antisense dTfUmUfAmCfGmUfUmGfAmCfAmGfGmUfAmGfGmGdT*dT; siRNA) [compound 2398] | 1.047 ± 0.047 | 0.534 ± 0.043
35 | 2399 (sense fCmCfUmAfCmCfUmGfUmCfAmAfCmGfUmAfAmCfAdT; antisense dTfGmUfUmAfCmGfUmUfGmAfCmAfGmGfUmAfGmGdT*dT; siRNA) [compound 2399] | 0.784 ± 0.071 | 0.418 ± 0.081
